# From ChEMBL document CHEMBL1130507, “Synthesis and evaluation of benzophenone-based photoaffinity labeling analogs of prenyl pyrophosphates containing stable amide linkages” (Bioorg Med Chem Lett, 1997)
# Molecular target: T1, Farnesyltransferase (Saccharomyces cerevisiae S288c, UniProt P22007+P29703)
# T1 sequence (P29703 whole entry): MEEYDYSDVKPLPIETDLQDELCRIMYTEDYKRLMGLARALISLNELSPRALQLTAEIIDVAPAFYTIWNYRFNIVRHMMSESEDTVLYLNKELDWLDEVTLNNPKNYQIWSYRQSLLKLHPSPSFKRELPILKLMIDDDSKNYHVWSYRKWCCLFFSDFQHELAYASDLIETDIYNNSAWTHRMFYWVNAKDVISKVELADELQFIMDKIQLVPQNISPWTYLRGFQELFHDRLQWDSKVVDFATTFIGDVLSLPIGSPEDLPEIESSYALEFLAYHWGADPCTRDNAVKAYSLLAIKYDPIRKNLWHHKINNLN
# T1 sequence (P22007 whole entry): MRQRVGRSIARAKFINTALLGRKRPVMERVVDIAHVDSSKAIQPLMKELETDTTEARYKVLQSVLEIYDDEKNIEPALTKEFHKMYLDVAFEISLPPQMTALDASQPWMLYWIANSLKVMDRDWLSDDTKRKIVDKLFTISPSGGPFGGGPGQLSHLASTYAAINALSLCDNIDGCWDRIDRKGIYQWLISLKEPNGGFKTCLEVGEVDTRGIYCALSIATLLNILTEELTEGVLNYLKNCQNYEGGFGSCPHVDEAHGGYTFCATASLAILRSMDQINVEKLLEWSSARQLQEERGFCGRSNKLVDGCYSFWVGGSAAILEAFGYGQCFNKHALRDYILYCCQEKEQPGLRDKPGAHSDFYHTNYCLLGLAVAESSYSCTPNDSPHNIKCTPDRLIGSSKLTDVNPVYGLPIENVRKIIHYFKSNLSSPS
# Assay: Inhibition of yeast Farnesyl transferase
# Format: protein-complex assay
Structure (SMILES),IC50 [nM],Kd [nM],Ki [nM]
C/C(=C\COP(=O)(O)OP(=O)(O)O)CC/C=C(\C)CN1C(=O)c2ccccc2C1=O,10000,–,–
CC(C)=CCC/C(C)=C/CC/C(C)=C/CO[P@@](=O)(O)OP(=O)(O)O [FARNESYL DIPHOSPHATE],–,75,–
C/C(=C\COP(=O)(O)OP(=O)(O)O)CC/C=C(\C)COC(=O)c1cccc(C(=O)c2ccccc2)c1,2300,–,380
C/C(=C\COP(=O)(O)OP(=O)(O)O)COC(=O)c1cccc(C(=O)c2ccccc2)c1,2000,–,960

# Next, values leading:
IC50 [nM],Kd [nM],Ki [nM],Structure (SMILES)
37000,–,6000,C/C(=C\COP(=O)(O)OP(=O)(O)O)CNC(=O)c1cccc(C(=O)c2ccccc2)c1
3700,–,700,C/C(=C\COP(=O)(O)OP(=O)(O)O)CC/C=C(\C)CNC(=O)c1cccc(C(=O)c2ccccc2)c1
